The record followed here is US12539279B2, “Supramolecular ionizable lipid molecules with heteroatomic tuning for nucleic acid delivery” (priority 2023, dated 2026).

Molecules are shown by their SMILES.

Series [1] is described as follows: mRNA encapsulation efficiency (modified Quant-iT RiboGreen assay). Type of series: physicochemical. The conditions noted are these: LNP before freezing. How it is done: For LNPs encapsulating mRNA, mRNA concentration and encapsulation efficiency were determined using a modified Quant-iT RiboGreen assay (Invitrogen). The assay was performed in triplicates in a 96 well plate. 12 μL of the LNP sample or TE buffer (composed of 10 mM Tris-HCl containing 1 mM EDTA·Na2) (blank sample) was diluted in 300 μL of 1×TE buffer pH 7.5. 50 μL of the diluted samples were transferred to 6 separate wells and either 50 μL of TE buffer or 50 μL of a 4% Triton X-100 solution in TE buffer was added to the wells. Two 6-point standard curves ([…]) were prepared in the same plate by diluting Firefly luciferase mRNA to a final volume of 100 μL in 2% Triton X-100 or TE buffer. The plate was then incubated for 10 min at 40° C. with gentle shaking. The Ribogreen reagent was diluted 1:100 in TE buffer, and 100 μL of this solution was added to each well. […] Fluorescence intensity was measured with a plate reader at an excitation wavelength of 480 nm and an emission wavelength of 525 nm. The raw fluorescence values were subtracted by the background fluorescence (blank sample). The concentration of free mRNA and total mRNA were determined by linear interpolation of the appropriate standard curve. Encapsulation efficiency was determined by dividing the calculated concentration of encapsulated mRNA by the total mRNA concentration in the LNP sample.

Series [2] is classed as physicochemical. The method, then: Determination of the apparent pKa of LNPs was carried out using a TNS assay. Briefly, a series of buffers was generated by titrating a solution containing 10 mM citrate, 10 mM phosphate, 10 mM borate, and 150 mM NaCl with 1.0 M HCl. Aliquots of this combined buffer were taken to generate 12 total buffers ranging from pH 4.0 to 9.5 in increments of 0.5 pH. LNPs (diluted to 100 uM of ionizable lipid in distilled water) and 6-(p-toluidino)-2-naphthalenesulfonic acid (TNS, Sigma Aldrich, 60 uM in distilled water) were diluted into these buffers to a final concentration of 9 and 5.45 μM, respectively. The plate was covered and equilibrated at room temperature for 20 min. Fluorescence intensity was determined using a BioTek H1 Synergy plate reader (325 nm excitation/435 nm emission). The raw fluorescence values were fit using GraphPad Prism 8 to determine pKa, which corresponds to the pH value at 50% max fluorescence.

For series [3], the system named is firefly luciferase protein expression. Put plainly: Intramuscular expression profile of formulated firefly luciferase mRNA in mice (IVIS). Type of series: in vivo, BALB/c mice. The conditions noted are these: intramuscular firefly luciferase mRNA-LNP. The method, then: All procedures used in animal studies conducted at the University of Toronto were approved by Institutional Animal Care and Use committee (IACUC) under protocol number 20012621 and comply with all applicable local, provincial, and federal regulations. Female BALB/c mice (7-8 weeks old) were purchased from Charles River Laboratories and acclimated for 1 to 2 weeks before initiation of the study.
Mice (n=4) were injected in both quadriceps with 0.5 μg of formulated firefly luciferase mRNA in 50 μL. At various timepoints (6 hours, 24 hours, 48 hours, and 96 hours post-dose), mice were injected intraperitoneally with 3 mg D-Luciferin (Thermo Scientific 88291) in 200 μL 1×PBS. 5 minutes later, mice were anesthetized and imaged on an in vivo imaging system (PerkinElmer, IVIS Spectrum) to measure total bioluminescent flux (photons/second) in each hindlimb (FIG. 2). The area under curve (AUC) for individual hindlimbs was determined with GraphPad Prism 9.

The test system of a further series is THP-1 monocytes. In kind it is cell-based, human. The conditions noted are these: THP-1, 500 ng/well mRNA, 24 hours post-transfection. How it is done: THP-1 monocytes are human cells isolated from the peripheral blood of a patient with acute monocytic leukemia. […] Cells were plated at a density of 100,000 cells per well in a 96-well plate and transfected in quadruplicates with 500 ng/well of firefly luciferase mRNA formulated in lipid nanoparticles. Cell viability and firefly luciferase expression were determined after 24 hours with a plate reader assay, following the manufacturer's protocol (Promega E7110).

Regarding `CCCCCCCCCCN(CCCCCCCCCC)CCOC(=O)CCN(CCO)CCC(=O)OCCN(CCCCCCCCCC)CCCCCCCCCC` [Compound I-1], in series [1], the “mRNA encapsulation efficiency relative to amide analogue (Compound I-12)” value is “significantly reduced”. Also, the “Apparent pKa relative to amide analogue (Compound I-12 / F16)” value in series [2] is given as “significantly reduced”. In addition, in series [3], the “intramuscular expression (in words)” value is recorded as “significantly reduced intramuscular expression”.
As to `CCCCCCCCCCN(CCCCCCCCCC)CCOC(=O)CCCN(CCO)CCCC(=O)OCCN(CCCCCCCCCC)CCCCCCCCCC` [Compound I-3], in series [3], the “intramuscular expression (in words)” value is reported as “higher intramuscular expression than DLin-MC3-DMA”. In addition, in the series on THP-1 monocytes, the “cell viability / toxicity” value is listed as “significant cell death”.
